Like-named read-outs stand apart in the source and are kept apart here.
Tests used:
[1] = C.A. 95:36562k; cited from earlier work
[2] = C.A. 98:100331a; cited from earlier work
man = conditions: cited from earlier work
dog = conditions: scu-dog; cited from earlier work
[3] = 25° C.; cited from earlier work
mus = conditions: scu-mus; cited from earlier work
gpg [4] = conditions: orl-gpg; cited from earlier work
[5] = C.A. 103:136646t; cited from earlier work
[6] = C.A. 101:205528d; cited from earlier work
[7] = Time required to form solid-state, sodium silicofluoride added to Neoprene 671 latex; format: physicochemical
Excerpt: If the overspray method is not preferred, an in-situ solidifying compound can be used that reduces the application process to a single step. To effect in-situ transformation from the liquid to the solid state, about 0.25 to about 6 parts of a solidifying compound such as ammonium silicofluoride, sodium silicofluoride, or potassium silicofluoride per hundred parts solid resin (phr) may be added to the liquid-state composition as a finely ground (e.g., ball milled) dispersion just prior to application.
The time required to form a solid-state will vary according to concentration of solidifying compound and polymer type. By way of example, when sodium silicofluoride was added to Neoprene 671 latex, the following results were attained.

[8] = C.A. 96:47119t, 101:189850v; cited from earlier work
[9] = C.A. 100:116031y; cited from earlier work
gpg [10] = assay: Oral toxicity orl-gpg LDLo (lead toxicity mitigation); conditions: transformation of lead oxide to lead sulfide
[11] = Copper oxide cleaning (Example 5), painted cinder block; conditions: weight loss
Description: Samples of coarse, deep pore cinder block (2×2×1/2 inch) were sealed by spray applying a 4-7 mil wet film thickness coating of interior, semigloss alkyd paint. The coated samples were air dried at ambient temperature for 7 days and subsequently cured at 150° F. for 8 hours. A 5% dispersion of copper oxide in hexane was spray applied until the dry copper oxide up-take reached approximately 250 mg/sample. After spraying, the samples were allowed to dry at ambient temperature for 24 hours, whereupon 20-25 wet mils of the liquid-state composition were spray applied over the contaminated surfaces. After 10 minutes, the liquid-statecomposition was scrubbed into the surface using the circular action of a nylon dental brush. After 20 scrub cycles, the brush was removed, and an additional 25-30 mils wet film thickness of liquid-state composition were spray applied over the treated area. After drying for 24 hours at ambient temperature, the solid-state matrix was removed and the reverse side was inspected. […] The larger matrix projections reached 0.6 to 0.9 mm in length. […] A subtle discoloration of the white alkyd paint (graying) was noted. Weight-loss measurements indicated 78% removal of CuO. […]

[12] = Sax, 6th Ed., P. 347; cited from earlier work

## O=C(O)C(S)C(S)C(=O)O (centres unmarked) [2,3-dimercaptosuccinic acid]
[1]
  antidotal activity for antimony: provides antidotal activity for antimony

## O=Cc1ccc(O)cc1O [2,4-dihydroxybenzaldehyde]
[2]
  spray-on reagent for identification of arsenic III: useful as a spray-on reagent for the identification of arsenic III

## [Sb] [Antimony]
man; unk.-man
  LDLo: 15 mg/kg

## [Ba] [Barium]
man; orl-hmm
  LDLo: 11.4 mg/kg

## [Cd] [Cadmium]
man; inhl-man
  TCLo: 40 μg/m^3

## [Cr] [Chromium]
dog
  LDLo: 330 mg/kg

## [Cu] [Copper]
man; orl-hmn
  TDLo: 0.12 mg/kg

## C=O [Formaldehyde]
[3]
  Vapor pressure: 0.187 kPa
mus
  LD50: 300 mg/kg
  toxicity grade: Severe toxicity

## [Cl][Pb][Cl] [Lead chloride]
Gpg [4]
  LDLo: 2000 mg/kg

## O=C(O)CN(CC(=O)O)CC(=O)O [N,N-bis(carboxymethyl)glycine]
[5]
  antidotal activity for chromium: provides antidotal activity for chromium

## O=C(O)c1ccccc1C(=O)NCC(S)CS (centres unmarked) [N-(2,3-dimercaptopropyl)phthalamidic acid]
[6]
  antidotal activity for sodium arcenate: provides antidotal activity for sodium arcenate

## F[Si-2](F)(F)(F)(F)F.[Na+].[Na+] [Sodium Silicofluoride, sodium silicofluoride]
[7]; 2 phr added to Neoprene 671 latex
  Time Required to Form Solid-State: 150 min
[7]; 2.5 phr added to Neoprene 671 latex
  Time Required to Form Solid-State: 18 min
[7]; 3 phr added to Neoprene 671 latex
  Time Required to Form Solid-State: 7 min
[7]; 4 phr added to Neoprene 671 latex
  Time Required to Form Solid-State: 5 min

## O=P(O)(O)O[C@H]1[C@H](OP(=O)(O)O)[C@@H](OP(=O)(O)O)[C@H](OP(=O)(O)O)[C@@H](OP(=O)(O)O)[C@H]1OP(=O)(O)O [Sodium phytate]
[8]
  antidotal activity: provides antidotal activity

## [SH-].[SH-].[S]=[Mo]=[S] [Tetrathiomolybdate (VI)]
[9]
  antidotal activity for copper: provides antidotal activity for copper

## O=C([O-])[O-].O=C([O-])[O-].[OH-].[OH-].[Pb+2].[Pb+2].[Pb+2] [White lead]
man; in vivo
  Symptoms: Same as lead halides
man; orl-man
  TDLo: 214 mg/kg

## [S]=[Pb] [lead sulfide]
Gpg [4]
  LDLo: 10 gm/Kg
Gpg [10]
  reduction in toxicity: 10 fold

## O=P([O-])([O-])[O-].[Na+].[Na+].[Na+] [trisodiumphosphate]
[11]
  removal of CuO: 55%

## Barium sulfate
[12]
  acute toxicity: not being acutely toxic

## Formaldehyde Hydrosulfate
[3]
  Vapor pressure: No vapor pressure
mus
  LDLo: 3000 mg/kg
  toxicity grade: Moderate toxicity

## lead oxide
Gpg [4]
  LDLo: 1000 mg/kg
